Test results reported in patent US7235548B2, “Compounds and their use as positive AMPA receptor modulators” (NeuroSearch A/S, priority 1998, dated 2007).

Test system: AMPA receptor
Test: Voltage clamp (whole cell patch clamp), current induced by AMPA in cultured mouse neocortical neurons
Assay type: cell-based
Settings: for reversibility of the potentiation: after wash out of the compound; for potentiation of the current induced by application of 30 μM AMPA: holding voltage −60 mV
Procedure: Experiments were performed in voltage clamp using conventional whole cell patch clamp methods (Hamill et al., 1981), essentially as described previously (Mathiesen et al., 1998). The following salt solutions were used (mM): NaCl (140), KCl (4), CaCl2 (2), MgCl2 (1), Sucrose (30), Tetrodotoxin (0.0003), Bicuculline Methiodide (0.005) and HEPES (10, pH 7.4). Intracellular solution (mM): CsCl (120), CsF (20), MgCl2 (2), EGTA (10), HEPES (10, pH=7.2).
Mouse neocortical neurons were cultured essentially as described by Drejer et al. (1987). Briefly, the forebrains from embryonic (E17) NMRI mice were removed under sterile conditions. The tissue was chopped in 0.4 mm cubes and the triturated with trypsin (12.5 μg/ml) and DNAse (2.5 μg/ml), 15 min, 37° C. The cells were suspended at a concentration of 1×10^6 cells/ml in a slightly modified DMEM which contained horse serum (10% (v/v)), penicillin (333 U/ml), paraaminobenzoic acid (1 mg/ml), L-glutamine (0.5 mM), insulin (0.08 U/ml) and KCl (23.8 mM). The cell suspension was subsequently inoculated into poly-L-lysine coated 35 mm Petri dishes (2 ml/dish). Glass coverslips (3.5 mm) were placed in the dishes before coating. After 24 hr in culture, the medium was replaced by freshly made medium containing 1% N2 supplement instead of serum.
The cells were kept in culture for 7–14 days at 37° C. (5% CO2/95% O2) before experiments were carried out.
Electronics, programs and data acquisition: The amplifier used was the EPC-9 (HEKA-electronics, Lambrect, Germany) run by a Power Macintosh G3 computer via an ITC-16 interface. Experimental conditions were set with the Pulse-software accompanying the amplifier. Data were low pass filtered and sampled directly to hard-disk at a rate of 3 times the cut-off frequency.
Pipettes and electrodes: Pipettes were pulled from borosilicate glass (Modulohm, Copenhagen, Denmark) using a horizontal electrode puller (Zeitz-Instrumente, Augsburg, Germany). The pipette resistances were 1.7–2.4 MW in the salt solutions used in these experiments. The pipette electrode was a chloridized silver wire, and the reference was a silverchloride pellet electrode (In Vivo Metric, Healdsburg, USA) fixed to the experimental chamber. The electrodes were zeroed with the open pipette in the bath just prior to sealing.
Experimental procedure: Coverslips were transferred to a […] experimental chamber mounted on the stage of an inverted microscope (IMT-2, Olympus) supplied with Nomarski optics. The neurons were continuously superfused with extracellular saline at a rate of 2.5 ml/min. After giga-seal formation (1–5 GW, success-rate≈90%) the whole cell configuration was attained by suction.
The cells were held at a holding voltage of −60 mV and at the start of each experiment the current was continuously measured for at least 30 sec to ensure a stable leak current. AMPA-containing solutions were delivered to the chamber through a custom-made gravity-driven flowpipe, the tip of which was placed approximately 50 μm from the cell. Application was triggered when the tubing connected to the flow pipe was compressed by a valve controlled by the Pulse-software. AMPA (30 μM) was applied for 1 sec every 45 sec. After obtainment of responses of a repeatable amplitude the compound to be tested was included in both the chamber and in the AMPA-containing solution. The compound was present until responses of a new repeatable was obtained.
The sample interval in all experiments was 310 μsec.
All experiments were performed at room temperature (20–25° C.).

| Structure (SMILES) | reversibility of the potentiation | persistence of the effect after wash out (compound 3 μM) | potentiation of the current induced by application of 30 μM AMPA (compound 3 μM) | concentration dependence of the effect (FIG. 8) | potentiation of the current induced by application of 30 μM AMPA (compound 10 μM) |
| --- | --- | --- | --- | --- | --- |
| O=S1(=O)NC(C2CCCCC2)Nc2ccc(S(=O)(=O)N3CCOCC3)cc21 (centres unmarked) [Compound 63, 3-Cyclohexyl-7-morpholinosulfonyl-1,2,3,4-tetrahydro-1,2,4-benzothiadiazine-1,1-dioxide] | reversible | persits for several minutes after wash out | potentiated |  |  |
| Cc1cc2c(cc1S(=O)(=O)N1CCCCC1)S(=O)(=O)NC(C1CCCC1)N2 (centres unmarked) [Compound 114, 3-Cyclopentyl-6-methyl-7-piperidinosulfonyl-1,2,3,4-tetrahydro-1,2,4-benzothia-diazine-1,1-dioxide] | reversible |  | potentiated | concentration-dependent |  |
| Cc1cc2c(cc1S(=O)(=O)N1CCOCC1)S(=O)(=O)NC(C1CCCCC1)N2 (centres unmarked) [Compound 115, 3-Cyclohexyl-6-methyl-7-morpholinosulfonyl-1,2,3,4-tetrahydro-1,2,4-benzothiadiazine-1,1-dioxide] | reversible |  |  |  | potentiated |
